{
  "source": "patent US20240018146A1",
  "about": "“COMPOSITIONS AND METHODS OF USING THE SAME FOR TREATMENT OF NEURODEGENERATIVE AND MITOCHONDRIAL DISEASE” (MITOKININ, INC., priority 2020, published 2024)",
  "type_in_all_cases": "cell-based",
  "key": {"HeLa MKYP cells [1]": {"test_system": "HeLa MKYP cells", "assay": "Human mitophagy assay (HeLa mKeima assay, FACS)", "conditions": "read-out: Mitophagy induction EC50", "outline": "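Mitophagy, read by FACS as the share of cells showing the lysosomal mtKeima emission shift, followed 6 h of 1 uM FCCP/oligomycin stimulation. Before that, HeLa MKYP cells spent 16 h with compound over a concentration range.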"}, "HeLa MKYP cells [2]": {"test_system": "HeLa MKYP cells", "assay": "Cell death measured by DAPI staining, with 1 μM FCCP/oligomycin or no toxin (no FO)", "outline": "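Cell death was read by DAPI staining after 6–6.5 h compound exposure in HeLa MKYP cells, either with 1 μM FCCP/oligomycin or without toxin. H2O2 served as the cell-death control.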"}, "[3]": {"assay": "Mitotoxicity / Mitotox safety margin (therapeutic window)"}},
  "note": "Read-outs that look alike come from different tables or passages of the source.",
  "data": [
    {"compound": "C[C@@H]1CN([C@@H]2COc3cc(F)ccc3[C@H]2Nc2ncnc3[nH]c(C(F)(F)F)cc23)C[C@H](C)O1", "note": "[EP-0040947]", "values": [
      {"measurement": "EC50", "setting": "HeLa MKYP cells [1]; Homo sapiens, HeLa", "value": 20, "unit": "nM"},
      {"measurement": "Highest safe dose (cytotoxicity; no FO; safe means DAPI+ <20%)", "setting": "HeLa MKYP cells [2]", "value": 25.0, "unit": "µM"},
      {"measurement": "Max % death with 1 μM FO", "setting": "HeLa MKYP cells [2]", "value": 16.6, "unit": "%"},
      {"measurement": "Mito-Safety Index (highest safe dose/EC50)", "setting": "[3]", "value": 98.61},
      {"measurement": "Highest safe dose (μM) (mitotox or cytotox)", "setting": "[3]", "value": 2.2, "unit": "µM"}
    ]},
    {"compound": "C[C@@H]1CN([C@H]2COc3cc(F)ccc3[C@@H]2Nc2ncnc3[nH]c(C4CC4)cc23)C[C@H](C)O1", "note": "[EP-0040948]", "values": [
      {"measurement": "EC50", "setting": "HeLa MKYP cells [1]; Homo sapiens, HeLa", "value": "> 25000", "unit": "nM"},
      {"measurement": "Highest safe dose (cytotoxicity; no FO; safe means DAPI+ <20%)", "setting": "HeLa MKYP cells [2]", "value": 25.0, "unit": "µM"},
      {"measurement": "Max % death with 1 μM FO", "setting": "HeLa MKYP cells [2]", "value": 5.6, "unit": "%"},
      {"measurement": "Highest safe dose (μM) (mitotox or cytotox)", "setting": "[3]", "value": 25.0, "unit": "µM"}
    ]},
    {"compound": "C[C@@H]1CN([C@@H]2COc3cc(F)ccc3[C@H]2Nc2ncnc3[nH]c(C4CC4)cc23)C[C@H](C)O1", "note": "[EP-0040949]", "values": [
      {"measurement": "EC50", "setting": "HeLa MKYP cells [1]; Homo sapiens, HeLa", "value": 10, "unit": "nM"},
      {"measurement": "Highest safe dose (cytotoxicity; no FO; safe means DAPI+ <20%)", "setting": "HeLa MKYP cells [2]", "value": 25.0, "unit": "µM"},
      {"measurement": "Max % death with 1 μM FO", "setting": "HeLa MKYP cells [2]", "value": 21.1, "unit": "%"},
      {"measurement": "Mito-Safety Index (highest safe dose/EC50)", "setting": "[3]", "value": 114.83},
      {"measurement": "Highest safe dose (μM) (mitotox or cytotox)", "setting": "[3]", "value": 1.2, "unit": "µM"}
    ]},
    {"compound": "C[C@@H]1CN([C@@H]2COc3ccccc3[C@H]2Nc2ncnc3[nH]c(C(F)(F)F)cc23)CCO1", "note": "[EP-0040956]", "values": [
      {"measurement": "EC50", "setting": "HeLa MKYP cells [1]; Homo sapiens, HeLa", "value": 190, "unit": "nM"},
      {"measurement": "Highest safe dose (cytotoxicity; no FO; safe means DAPI+ <20%)", "setting": "HeLa MKYP cells [2]", "value": 25.0, "unit": "µM"},
      {"measurement": "Max % death with 1 μM FO", "setting": "HeLa MKYP cells [2]", "value": 24.7, "unit": "%"},
      {"measurement": "Mito-Safety Index (highest safe dose/EC50)", "setting": "[3]", "value": 52.10},
      {"measurement": "Highest safe dose (μM) (mitotox or cytotox)", "setting": "[3]", "value": 9.7, "unit": "µM"}
    ]},
    {"compound": "C[C@@H]1CN([C@@H]2COc3ccccc3[C@H]2Nc2ncnc3[nH]c(C4CC4)cc23)CCO1", "note": "[EP-0040958]", "values": [
      {"measurement": "EC50", "setting": "HeLa MKYP cells [1]; Homo sapiens, HeLa", "value": 60, "unit": "nM"},
      {"measurement": "Highest safe dose (cytotoxicity; no FO; safe means DAPI+ <20%)", "setting": "HeLa MKYP cells [2]", "value": 25.0, "unit": "µM"},
      {"measurement": "Max % death with 1 μM FO", "setting": "HeLa MKYP cells [2]", "value": 14.1, "unit": "%"},
      {"measurement": "Mito-Safety Index (highest safe dose/EC50)", "setting": "[3]", "value": 29.33},
      {"measurement": "Highest safe dose (μM) (mitotox or cytotox)", "setting": "[3]", "value": 1.7, "unit": "µM"}
    ]},
    {"compound": "C[C@H]1CN([C@@H]2COc3ccccc3[C@H]2Nc2ncnc3[nH]c(C(F)(F)F)cc23)CCO1", "note": "[EP-0040980]", "values": [
      {"measurement": "EC50", "setting": "HeLa MKYP cells [1]; Homo sapiens, HeLa", "value": 380, "unit": "nM"},
      {"measurement": "Highest safe dose (cytotoxicity; no FO; safe means DAPI+ <20%)", "setting": "HeLa MKYP cells [2]", "value": 19.4, "unit": "µM"},
      {"measurement": "Max % death with 1 μM FO", "setting": "HeLa MKYP cells [2]", "value": 14.7, "unit": "%"},
      {"measurement": "Mito-Safety Index (highest safe dose/EC50)", "setting": "[3]", "value": 50.83},
      {"measurement": "Highest safe dose (μM) (mitotox or cytotox)", "setting": "[3]", "value": 19.4, "unit": "µM"}
    ]},
    {"compound": "C[C@H]1CN([C@H]2COc3ccccc3[C@@H]2Nc2ncnc3[nH]c(C4CC4)cc23)CCO1", "note": "[EP-0040999]", "values": [
      {"measurement": "EC50", "setting": "HeLa MKYP cells [1]; Homo sapiens, HeLa", "value": 140, "unit": "nM"},
      {"measurement": "Highest safe dose (cytotoxicity; no FO; safe means DAPI+ <20%)", "setting": "HeLa MKYP cells [2]", "value": 25.0, "unit": "µM"},
      {"measurement": "Max % death with 1 μM FO", "setting": "HeLa MKYP cells [2]", "value": 12.1, "unit": "%"},
      {"measurement": "Mito-Safety Index (highest safe dose/EC50)", "setting": "[3]", "value": 105.78},
      {"measurement": "Highest safe dose (μM) (mitotox or cytotox)", "setting": "[3]", "value": 15.1, "unit": "µM"}
    ]},
    {"compound": "C[C@@H]1CN([C@H]2COc3cc(F)ccc3[C@@H]2Nc2ncnc3[nH]c(C4CC4)cc23)CCO1", "note": "[EP-0041122]", "values": [
      {"measurement": "EC50", "setting": "HeLa MKYP cells [1]; Homo sapiens, HeLa", "value": 50, "unit": "nM"},
      {"measurement": "Highest safe dose (cytotoxicity; no FO; safe means DAPI+ <20%)", "setting": "HeLa MKYP cells [2]", "value": 16.7, "unit": "µM"},
      {"measurement": "Max % death with 1 μM FO", "setting": "HeLa MKYP cells [2]", "value": 16.9, "unit": "%"},
      {"measurement": "Mito-Safety Index (highest safe dose/EC50)", "setting": "[3]", "value": 37.43},
      {"measurement": "Highest safe dose (μM) (mitotox or cytotox)", "setting": "[3]", "value": 2.0, "unit": "µM"}
    ]},
    {"compound": "C[C@H]1CN([C@@H]2COc3cc(F)ccc3[C@H]2Nc2ncnc3[nH]c(C4CC4)cc23)CCO1", "note": "[EP-0041125]", "values": [
      {"measurement": "EC50", "setting": "HeLa MKYP cells [1]; Homo sapiens, HeLa", "value": 160, "unit": "nM"},
      {"measurement": "Highest safe dose (cytotoxicity; no FO; safe means DAPI+ <20%)", "setting": "HeLa MKYP cells [2]", "value": 25.0, "unit": "µM"},
      {"measurement": "Max % death with 1 μM FO", "setting": "HeLa MKYP cells [2]", "value": 9.6, "unit": "%"},
      {"measurement": "Mito-Safety Index (highest safe dose/EC50)", "setting": "[3]", "value": 45.69},
      {"measurement": "Highest safe dose (μM) (mitotox or cytotox)", "setting": "[3]", "value": 7.4, "unit": "µM"}
    ]},
    {"compound": "CO[C@H]1CCN([C@H]2COc3ccccc3[C@@H]2Nc2ncnc3[nH]c(C(F)(F)F)cc23)C1", "note": "[EP-0041172]", "values": [
      {"measurement": "EC50", "setting": "HeLa MKYP cells [1]; Homo sapiens, HeLa", "value": 10, "unit": "nM"},
      {"measurement": "Highest safe dose (cytotoxicity; no FO; safe means DAPI+ <20%)", "setting": "HeLa MKYP cells [2]", "value": 25.0, "unit": "µM"},
      {"measurement": "Max % death with 1 μM FO", "setting": "HeLa MKYP cells [2]", "value": 8.4, "unit": "%"},
      {"measurement": "Mito-Safety Index (highest safe dose/EC50)", "setting": "[3]", "value": 121.36},
      {"measurement": "Highest safe dose (μM) (mitotox or cytotox)", "setting": "[3]", "value": 1.1, "unit": "µM"}
    ]},
    {"compound": "CO[C@@H]1CCN([C@H]2COc3ccccc3[C@@H]2Nc2ncnc3[nH]c(C4CC4)cc23)C1", "note": "[EP-0041451]", "values": [
      {"measurement": "EC50", "setting": "HeLa MKYP cells [1]; Homo sapiens, HeLa", "value": 10, "unit": "nM"},
      {"measurement": "Highest safe dose (cytotoxicity; no FO; safe means DAPI+ <20%)", "setting": "HeLa MKYP cells [2]", "value": 25.0, "unit": "µM"},
      {"measurement": "Max % death with 1 μM FO", "setting": "HeLa MKYP cells [2]", "value": 6.5, "unit": "%"},
      {"measurement": "Mito-Safety Index (highest safe dose/EC50)", "setting": "[3]", "value": 87.93},
      {"measurement": "Highest safe dose (μM) (mitotox or cytotox)", "setting": "[3]", "value": 0.7, "unit": "µM"}
    ]},
    {"compound": "CO[C@H]1CCN([C@H]2COc3ccccc3[C@@H]2Nc2ncnc3[nH]c(C4CC4)cc23)C1", "note": "[EP-0041517]", "values": [
      {"measurement": "EC50", "setting": "HeLa MKYP cells [1]; Homo sapiens, HeLa", "value": 30, "unit": "nM"},
      {"measurement": "Highest safe dose (cytotoxicity; no FO; safe means DAPI+ <20%)", "setting": "HeLa MKYP cells [2]", "value": 25.0, "unit": "µM"},
      {"measurement": "Max % death with 1 μM FO", "setting": "HeLa MKYP cells [2]", "value": 4.8, "unit": "%"},
      {"measurement": "Mito-Safety Index (highest safe dose/EC50)", "setting": "[3]", "value": 34.73},
      {"measurement": "Highest safe dose (μM) (mitotox or cytotox)", "setting": "[3]", "value": 1.1, "unit": "µM"}
    ]},
    {"compound": "COC[C@H]1CCN([C@H]2COc3ccccc3[C@@H]2Nc2ncnc3[nH]c(C4CC4)cc23)C1", "note": "[EP-0041546]", "values": [
      {"measurement": "EC50", "setting": "HeLa MKYP cells [1]", "value": 170, "unit": "nM"},
      {"measurement": "Highest safe dose (cytotoxicity; no FO; safe means DAPI+ <20%)", "setting": "HeLa MKYP cells [2]", "value": 25.0, "unit": "µM"},
      {"measurement": "Max % death with 1 μM FO", "setting": "HeLa MKYP cells [2]", "value": 6.6, "unit": "%"},
      {"measurement": "Mito-Safety Index (highest safe dose/EC50)", "setting": "[3]", "value": 21.52},
      {"measurement": "Highest safe dose (μM) (mitotox or cytotox)", "setting": "[3]", "value": 3.6, "unit": "µM"}
    ]}
  ]
}
